Experimental data taken from patent US11426397B2, “Piperidinyl- and piperazinyl-substituted heteroaromatic carboxamides as modulators of GPR6” (TAKEDA PHARMACEUTICAL COMPANY LIMITED, priority 2017, dated 2022).

Assays:
[1] = molecular target: T1, GPR6 receptor expressed in CHO-K1 cells (Homo sapiens, UniProt P46095); assay: In vitro inhibition of cAMP (EC50), cell-based HTRF cAMP assay; details: inhibition of constitutive cAMP activity of GPR6 in CHO-K1 cells
T1 construct: expressed in transfected cells
T1 sequence (P46095 whole entry): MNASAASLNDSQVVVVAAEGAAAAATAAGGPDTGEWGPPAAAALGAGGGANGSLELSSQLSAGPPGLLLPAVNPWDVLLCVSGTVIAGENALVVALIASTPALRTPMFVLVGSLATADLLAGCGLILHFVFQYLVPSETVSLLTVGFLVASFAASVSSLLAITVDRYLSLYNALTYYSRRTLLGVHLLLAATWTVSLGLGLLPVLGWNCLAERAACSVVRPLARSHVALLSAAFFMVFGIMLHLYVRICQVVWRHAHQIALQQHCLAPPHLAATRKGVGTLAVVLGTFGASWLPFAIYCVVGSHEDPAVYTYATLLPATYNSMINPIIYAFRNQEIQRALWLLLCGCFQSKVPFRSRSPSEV
Procedure, shortened: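 Cellular cAMP measured by Lance Ultra HTRF (Eu-cAMP tracer, ULight anti-cAMP), with EC50 fitted by four-parameter logistic. Test compounds sat on cells 45 min, 37 °C, in pH 7.4 Ringer's with 300 μM IBMX and 0.5% BSA; GPR6 in CHO-K1 induced beforehand by doxycycline, 2 μg/mL, 20 h.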

[2] = system: haloperidol-induced catalepsy; assay: In vivo Parkinson's disease model, haloperidol-induced catalepsy; parameters: species or system mice; details: mouse catalepsy model, PO
Text: II. In Vivo Parkinson's Disease Model Haloperidol-Induced Catalepsy The motor symptoms of Parkinson's disease include akinesia, bradykinesia, rigidity, tremor and postural abnormalities and are associated with the loss of nigral dopaminergic cells and a decline in striatal dopamine levels. Administration of haloperidol to rodents leads to a transient Parkinsonian-like state that is reversed by the administration of levodopa and other drugs that have been clinically validated for the treatment of Parkinson's disease. See Duty, S. & Jenner, P. Br. J. Pharmacol. 164:1357-1391 (2011). Haloperidol antagonizes dopamine D2, and to a lesser extent, D1 receptors in medium spiny neurons that comprise the indirect and direct pathways of the motor circuit, respectively. The resultant block of striatal dopamine transmission results in abnormal downstream firing within the basal ganglia circuits that is manifest as symptoms of muscle rigidity and catalepsy. Catalepsy has been postulated to reflect the clinical features of Parkinson's disease, whereby patients experience an inability to initiate movements. Male C57B16 mice weighing 25-35 g are used. Catalepsy is induced by the subcutaneous (sc) administration of the dopamine receptor antagonist haloperidol (0.45 mg/kg) at least 30 minutes before testing the animals on a vertical grid test. For this test, the rats or mice are placed on a wire mesh cover of a 25 cm×43 cm plexiglass cage placed at an angle of about 70 degrees with the bench table. The subject is placed on the grid with all four legs abducted and extended (“frog posture”). The use of such an unnatural posture is essential for the specificity of this test for catalepsy. The time span from placement of the paws until the first complete removal of one paw (descent latency) is measured maximally for 120 seconds for rats. For mice, the front paws of the mouse is placed on a horizontal metal bar raised 2″ above a Plexiglas platform and time is recorded for up to 30 seconds per trial. The test ends when the animal's front paws return to the platform or after 30 seconds. The test is repeated three times and the average of the three trials is reported as the intensity index of catalepsy. Animals evaluated at 30 minutes after dosing are reevaluated at 60 or 90 minutes post dosing of haloperidol. Efficacy of GPR6 modulators to reverse haloperidol induced catalepsy is measured 30 minutes, 60 minutes, and/or 90 minutes after dosing the subjects with 0.45 mg/kg ip (intraperitoneal injection) of haloperidol along with the GPR6 modulator test compound. A representative number of compounds of Formula 1 are administered in a dose range from 0.1 to 100 mg/kg (po in 0.5% methyl cellulose) in conjunction with haloperidol. […]

| Compound | pEC50, in vitro inhibition of cAMP [1] | % reversal ([2]; dose 1 mpk, time 30 minutes) [%] | % reversal ([2]; dose 1 mpk, time 90 minutes) [%] | melting point [°C] | % reversal ([2]; dose 3 mpk, time 60 minutes) [%] | % reversal ([2]; dose 1 mpk, time 60 minutes) [%] |
| --- | --- | --- | --- | --- | --- | --- |
| COc1ncccc1C(=O)Nc1cnc(C)nc1N1CCC(Oc2ccc(F)cc2F)CC1 [Example 18, N-(4-(4-(2,4-difluorophenoxy)piperidin-1-yl)-2-methylpyrimidin-5-yl)-2-methoxynicotinamide] | 6.8 | 53 | 37 | – | – | – |
| COc1ccncc1C(=O)Nc1cc(S(C)(=O)=O)ccc1N1CCC(Oc2ccc(F)cc2F)CC1 [Example 7, N-(2-(4-(2,4-difluorophenoxy)piperidin-1-yl)-5-(methylsulfonyl)phenyl)-4-methoxynicotinamide] | 7.4 | – | – | 173 | – | – |
| COc1nc(C)ccc1C(=O)Nc1cnc(C(=O)N(C)C)cc1N1CCC(Oc2ccc(F)cc2F)CC1 [Example 283, 4-(4-(2,4-difluorophenoxy)piperidin-1-yl)-5-(2-methoxy-6-methylnicotinamido)-N,N-dimethylpicolinamide] | 6.8 | – | – | – | 47 | – |
| COc1cc(N2CCC(Oc3ccc(F)cc3F)CC2)c(NC(=O)c2cccnc2OC)cn1 [Example 20, N-(4-(4-(2,4-difluorophenoxy)piperidin-1-yl)-6-methoxypyridin-3-yl)-2-methoxynicotinamide] | 6.9 | – | – | 138 | – | – |
| COc1ccccc1C(=O)Nc1cc(S(C)(=O)=O)ccc1N1CCC(Oc2ccc(F)cc2F)CC1 [Example 6, N-(2-(4-(2,4-difluorophenoxy)piperidin-1-yl)-5-(methylsulfonyl)phenyl)-2-methoxybenzamide] | 7.3 | – | – | 201 | – | – |
| COc1ncccc1C(=O)Nc1cnc(C(=O)N(C)C)cc1N1CCC(Oc2ccc(F)cc2F)CC1 [Example 31, 4-(4-(2,4-difluorophenoxy)piperidin-1-yl)-5-(2-methoxynicotinamido)-N,N-dimethylpicolinamide] | 7.1 | – | – | – | – | 47 |
